Measurements from ChEMBL document CHEMBL1201862, “PubChem BioAssay data set” (2004).
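A five-concentration, 48-hour dose response in 96-well plates underlies each endpoint, interpolated linearly between surrounding concentrations. The concentration for 50% growth inhibition is given as GI50.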 Active and inactive are the calls of the source. Rule as the data show it: active = GI50 up to about 1.1 µM and inactive = higher.

Assays:
Assay in all cases: NCI tumour cell line growth inhibition, 48 h
[1] = system: UACC-62
[2] = system: SF-268
[3] = system: SF-539
[4] = system: ACHN
[5] = system: SK-OV-3
[6] = system: A498
[7] = system: K562
[8] = system: MOLT-4
[9] = system: A549
[10] = system: U-251
[11] = system: LOX IMVI
[12] = system: IGROV-1
[13] = system: HOP-92
[14] = system: HCC 2998
[15] = system: EKVX

Measured: GI50

COC1=C(Br)C(=O)c2nc(C)ccc2C1=O
inactive: [1] 19 µM | [2] 17.5 µM | [3] 21.5 µM | [4] 10.7 µM | [5] 19.4 µM | [6] 22 µM | [7] 8.67 µM | [8] 2.4 µM | [9] 20.3 µM | [10] 15.1 µM | [11] 8.39 µM | [12] 19.6 µM | [13] 7.18 µM | [14] 18.1 µM | [15] 19.3 µM

O=C(N/N=C(/c1nc2ccc(Cl)cc2[nH]c1=O)C(O)c1ccc(Cl)cc1Cl)c1ccncc1 (stereo not drawn)
inactive: [1] > 100 µM | [2] > 100 µM | [3] > 100 µM | [4] > 100 µM | [5] > 100 µM | [6] > 100 µM | [7] > 100 µM | [8] > 100 µM | [9] > 100 µM | [10] > 100 µM | [11] > 100 µM | [12] > 100 µM | [13] > 100 µM | [14] > 100 µM | [15] > 100 µM

Cc1ccc(C)c(NC(=O)CCc2nnc(S)[nH]2)c1
inactive: [1] > 100 µM | [2] > 100 µM | [3] > 100 µM | [4] > 100 µM | [5] > 100 µM | [6] > 100 µM | [7] > 100 µM | [8] > 100 µM | [9] > 100 µM | [10] > 100 µM | [11] > 100 µM | [12] 86.7 µM | [13] > 100 µM | [14] > 100 µM | [15] > 100 µM

Cc1cccc(C)c1NC(=O)C(=O)CC(=O)c1cccc([N+](=O)[O-])c1
inactive: [1] > 100 µM | [2] > 100 µM | [3] > 100 µM | [4] > 100 µM | [6] > 100 µM | [7] > 100 µM | [8] > 100 µM | [9] > 100 µM | [10] > 100 µM | [12] > 100 µM | [13] > 100 µM | [15] > 100 µM

COc1ccc(C2c3cc4c(cc3OC(O)(CO)C2C(=O)O)OCO4)c(OC)c1OC.COc1ccc(C2c3cc4c(cc3OC3(O)COC(=O)C23)OCO4)c(OC)c1OC (stereo not drawn)
inactive: [1] > 100 µM | [3] > 100 µM | [4] > 100 µM | [5] > 100 µM | [7] 46.2 µM | [8] > 100 µM | [9] > 100 µM | [10] > 100 µM | [11] > 100 µM | [12] > 100 µM | [13] 29.2 µM | [15] > 100 µM

COc1ccc(CC(=O)c2cc(OC)c(OC)cc2C)cc1OC
inactive: [1] 38 µM | [2] 89.3 µM | [4] 29.4 µM | [5] > 100 µM | [6] > 100 µM | [7] 57.5 µM | [8] 44.8 µM | [9] 71.6 µM | [10] > 100 µM | [12] 14 µM | [14] > 100 µM | [15] 63 µM

Cc1ccc(S(=O)(=O)c2ccc(NC(=O)SCCC(=O)O)cc2)cc1
inactive: [1] > 100 µM | [2] > 100 µM | [3] > 100 µM | [4] > 100 µM | [6] > 100 µM | [7] > 100 µM | [8] > 100 µM | [9] > 100 µM | [10] > 100 µM | [11] > 100 µM | [12] 5.14 µM | [14] > 100 µM | [15] > 100 µM

NC(=S)N/N=C(\C(=O)Nc1cccc([N+](=O)[O-])c1)c1nc2ccc([N+](=O)[O-])cc2nc1O
inactive: [1] 51.4 µM | [2] > 100 µM | [3] 63.1 µM | [4] 21.4 µM | [5] > 100 µM | [6] > 100 µM | [7] 89.5 µM | [8] 18.2 µM | [9] 91.2 µM | [10] > 100 µM | [11] 34.7 µM | [12] > 100 µM | [13] > 100 µM | [14] 21.9 µM | [15] 54.3 µM

Cc1ccc(C)c(N2C(=O)C(=O)C(c3nc4ccccc4s3)C(=O)C2=O)c1
inactive: [1] > 100 µM | [2] > 100 µM | [3] > 100 µM | [4] > 100 µM | [5] > 100 µM | [6] > 100 µM | [7] > 100 µM | [8] > 100 µM | [9] > 100 µM | [10] 83.8 µM | [11] > 100 µM | [12] > 100 µM | [13] > 100 µM | [14] > 100 µM | [15] > 100 µM

COc1cc(C2C(C(=O)Nc3ccc([N+](=O)[O-])cc3)=C(C)NC(C)=C2C(=O)Nc2ccc([N+](=O)[O-])cc2)ccc1O
inactive: [1] 16.7 µM | [2] 23.2 µM | [3] 20.9 µM | [4] 24.3 µM | [5] 27.9 µM | [6] 36.7 µM | [7] 13.5 µM | [8] 19.9 µM | [9] 37.6 µM | [10] 16.8 µM | [11] 14.6 µM | [12] 24.9 µM | [13] 16.4 µM | [14] 18.4 µM | [15] 39.1 µM

Cc1ns/c(=N\C(=S)N(C)C)n1C
inactive: [1] > 100 µM | [2] > 100 µM | [3] > 100 µM | [4] > 100 µM | [5] > 100 µM | [6] > 100 µM | [7] > 100 µM | [8] > 100 µM | [9] > 100 µM | [10] > 100 µM | [12] > 100 µM | [13] > 100 µM | [14] > 100 µM | [15] > 100 µM

COc1ccc(S(=O)(=O)NNS(C)(=O)=O)cc1
inactive: [1] > 100 µM | [2] > 100 µM | [3] > 100 µM | [4] > 100 µM | [6] > 100 µM | [7] > 100 µM | [8] > 100 µM | [9] > 100 µM | [10] > 100 µM | [11] > 100 µM | [12] > 100 µM | [14] > 100 µM | [15] > 100 µM

CN(C)C(c1ccccc1)C(O)c1ccccc1 (stereo not drawn)
inactive: [1] > 100 µM | [2] > 100 µM | [3] > 100 µM | [4] > 100 µM | [5] > 100 µM | [6] > 100 µM | [7] > 100 µM | [8] > 100 µM | [9] > 100 µM | [10] > 100 µM | [11] > 100 µM | [12] > 100 µM | [14] > 100 µM | [15] > 100 µM

CNC(=S)OCCC(C)CCCC(C)C (stereo not drawn)
inactive: [1] 15.5 µM | [2] 17 µM | [3] 16.8 µM | [4] 18.8 µM | [5] 20.9 µM | [6] 16.3 µM | [7] 13.7 µM | [8] 11.2 µM | [9] 16.3 µM | [10] 15.5 µM | [11] 13.2 µM | [12] 17.3 µM | [14] 18 µM | [15] 17.1 µM

CC(=O)Nc1ccc(-c2nnc(SCC(=O)Nc3ccc(C)cc3)o2)cc1
inactive: [1] 16.9 µM | [2] 20.1 µM | [3] 13.5 µM | [4] 31.6 µM | [5] 49.2 µM | [7] 42.4 µM | [8] 32.1 µM | [9] 40.3 µM | [10] 19.4 µM | [11] 15.2 µM | [12] 12.9 µM | [13] 18.4 µM

Nc1nc2c(ncn2C2OC(CO)C(O)C2N)c(=O)[nH]1 (stereo not drawn)
inactive: [1] > 100 µM | [2] > 100 µM | [3] > 100 µM | [4] > 100 µM | [5] > 100 µM | [6] > 100 µM | [7] 86.9 µM | [8] > 100 µM | [9] 97.1 µM | [10] > 100 µM | [11] 60.1 µM | [12] > 100 µM | [13] > 100 µM | [14] > 100 µM

N#C/C(=C\c1cc2ccccc2c2ccccc12)c1ccccc1
inactive: [1] 3.75 µM | [2] 8.17 µM | [3] 6.15 µM | [4] 14.5 µM | [5] 6.73 µM | [6] 9.18 µM | [7] 3.13 µM | [8] 7.26 µM | [9] 7.46 µM | [10] 5.78 µM | [11] 9.51 µM | [12] 11.8 µM | [13] > 37.6 µM | [14] 11 µM | [15] 20 µM

CN(C)CCC(CCN(C)C)=NOC(=O)c1ccccc1
inactive: [1] > 100 µM | [2] > 100 µM | [3] > 100 µM | [4] > 100 µM | [5] > 100 µM | [6] > 100 µM | [7] > 100 µM | [8] > 100 µM | [9] > 100 µM | [10] > 100 µM | [12] > 100 µM | [14] > 100 µM | [15] > 100 µM

COc1ccc(NC(=O)COC(=O)c2cccc3c(=O)c4ccccc4[nH]c23)cc1
inactive: [1] 17.7 µM | [2] 22.3 µM | [3] 18.1 µM | [4] 21.1 µM | [5] 30.2 µM | [6] 11.3 µM | [7] 17.2 µM | [8] 14.2 µM | [9] 20.3 µM | [10] 19.5 µM | [11] 15 µM | [12] 27.4 µM | [13] 25.1 µM | [14] 51.1 µM | [15] 18.4 µM

O=C1/C(=C/c2ccc(Cl)cc2)CNC/C1=C\c1ccc(Cl)cc1
inactive: [1] 2.07 µM | [3] 1.77 µM | [4] 2.07 µM | [5] 10.8 µM | [6] 2.32 µM | [8] 2.28 µM | [9] 3.4 µM | [10] 1.36 µM | [12] 2.17 µM | [14] 2.23 µM
